# Key:
# [1] = test system: full-thickness excisional wounds with STSG; test: Histological analysis of collagen architecture of porcine STSG; assay type: in vivo, red Duroc pigs
# Method: (§1) STSG were not disturbed during the first 3 days.
# No patient identifying information was retained with the samples.
# Masson's Trichrome staining and Picrosirius Red staining were performed, and images were captured with a Leica DM5000 B upright microscope. For Picrosirius Red, polarized light microscopy was used to obtain 40× magnification images and analysis of fiber alignment was performed using CurveAlign (109) and MatFiber (98, 110). The strength of alignment ranges from a value of 0 (completely random fiber alignment) to 1 (completely aligned fibers). Quantification of individual collagen fiber parameters (fiber length, width) was performed using CT-FIRE (http://loci.wisc.edu/software/ctfire) (109, 113).
# porcine STSG cells = test: scRNA-seq of porcine STSG tissue; assay type: in vivo, red Duroc pigs; details: for number of DEGs between untreated STSG and STSG treated with FAKI: POD7
# Method: We obtained a 1 cm^2 tissue from the center of our STSG groups or unwounded skin. The tissue was thoroughly cut into small 1 mm^2 pieces using a scalpel before then being carefully minced with fine scissors. To maximize cell capture for scRNA-seq, diligent care was made to cut the tissue into a fine tissue paste consistency. An increased enzyme concentration and volume of 30 ml of 1 mg/mL Liberase (Sigma-Aldrich 5401127001) in PBS were used to fully break down the dense, fibrotic porcine extracellular matrix. The cell-digest suspensions were constantly agitated (rotated) for a total of 2 hours at 37° C. Tissue solution was subjected to maximum speed vortex mixer (VWR) for 30 seconds before being placed in the oven, after 1 hour, and again after total of 2 hours to physically disrupt any tissue that had clumped together and maximize the tissue surface area exposed to enzymatic digestion at all times.
# The tissue solution was filtered through a 100 μm Nylon cell filter (Fisher-Scientific 08-771-19) into a new conical tube, and 20 mL of 10% FBS DMEM was added through the filter to quench the enzymatic reaction and release any cells trapped within the filter, maximizing downstream cell yield. Solutions were spun at 350×g for 5 min at 4° C. in a centrifuge, supernatant was aspirated, and cells were then resuspended in 20 mL 10% FBS DMEM and passed through a 70 μm Nylon cell filter. A 20 mL solution of 10% FBS in PBS (FACS Buffer) was added through the filter to wash the remaining cells.
# This cellular suspension was then resuspended in a concentrated solution and submitted for droplet-based microfluidic single cell RNA sequencing (scRNA-seq) at the Stanford Functional Genomics Facility (SFGF) using the 10× Chromium Single Cell platform (Single Cell 3′ v3, 10× Genomics, USA). The cell suspension, reverse transcription master mix, and partitioning oil was loaded onto a single cell chip, processed on the Chromium Controller, and reverse transcription was performed at 53° C. for 45 min. cDNA was amplified for 12 cycles total (BioRad C1000 Touch thermocycler) with cDNA size selected using SpriSelect beads (Beckman Coulter, USA) and a 3:5 ratio of SpriSelect reagent volume to sample volume. cDNA was analyzed on an Agilent Bioanalyzer High Sensitivity DNA chip for qualitative control, fragmented for 5 min at 32° C., followed by end repair and A-tailing at 65° C. for 30 min, and then double-sided size selected with SpriSelect. Sequencing adaptors were ligated to the cDNA at 20° C. for 15 min. cDNA was amplified using a sample-specific index oligo as primer, followed by another round of double-sided size selection. Final libraries were analyzed on an Agilent Bioanalyzer High Sensitivity DNA chip for qualitative control purposes. cDNA libraries were sequenced on a HiSeq 4000 Illumina platform aiming for 50,000 reads per cell.
# Base calls were converted to reads using the Cell Ranger (10× Genomics; version 3.1) implementation of mkfastq and then aligned against our custom pig transcriptome using Cell Ranger's count function with SC3Pv3 chemistry and 5,000 expected cells per sample (51). Cell barcodes were filtered for high quality based on an optimized threshold of having at least 200 unique transcripts profiled, less than 10,000 total transcripts, and less than 10% of their transcriptome of mitochondrial origin (114).
# Unique molecular identifiers (UMIs) from each cell barcode were retained for all downstream analysis. Raw UMI counts were normalized with a scale factor of 10,000 UMIs per cell and subsequently natural log transformed with a pseudocount of 1 using the R package Seurat (version 3.1.1) (52). Highly variable genes were identified, and cells were scaled by regression to the fraction of mitochondrial transcripts. Aggregated data was then evaluated using uniform manifold approximation and projection (UMAP) analysis over the first 15 principal components (115). […]
# tumor growth = details: in vivo; cited from earlier work
# human fibroblasts = test: 3D organotypic scar culture system (strained collagen scaffolds), immunofluorescent staining; assay type: cell-based; details: 10% strain, 48 hours, 10 µM FAKI, vs strained fibroblasts
# Description: (§2) To determine whether the increased mechanical strain experienced by cells within the healing STSG would trigger the same fibroblast transcriptional states observed in vivo, we used our previously published three-dimensional (3D) organotypic scar culture system that permits the precise manipulation of strain (and therefore stress) without any other potential confounding factors (27, 98). Fibroblasts were first isolated from human skin and seeded within 3D collagen scaffolds (FIG. 8A). These scaffolds were then subjected to either 10% strain (Strain, S), 10% strain with FAK inhibition (Strain+FAKI, S+FAKI), or 0% strain (No Strain, NS) as a control (FIG. 8, A to C). Because it seemed likely that healing tissue would not be subjected to maximal strains (due to pain), we used a strain profile of 10% to represent the average wound strain environment.
# We isolated and cultured dermal fibroblasts from both healthy human and porcine skin samples. Fibroblasts were isolated by mechanical and enzymatic digestion and cultured under standard conditions until passage 3. Following our previously published protocols (98), we used the primary fibroblasts to create fibroblast-populated collagen hydrogels with a concentration of 200 k cells/mL and 2 mg/mL collagen (PureCol, Advanced Biomatrix 5005). In brief, collagen scaffolds were formulated in a cruciform shape with sponges in the arms and cultured in petri dishes on top of a layer (˜0.5 cm) of cured polydimethylsiloxane (PDMS; Sylgard 184 Silicone Elastomer Kit; Dow Corning). Pins were pushed through the sponges in the hydrogel cruciform arms to constrain the scaffolds during an initial pre-culture period (24h). Then, we subjected the scaffolds to either 0% strain (no strain) or 10% equibiaxial strain (either with or without FAKI) for an additional 48 hours. Strained but untreated cells were given 10 μL DMSO in 20 mL culture media, while strained and treated cells were administered 10 μL of 20 mM FAKI in DMSO in 20 mL culture media to achieve a final concentration of 10 µM FAKI.
# We used a suture to paint nine Titanium(IV) oxide dots (Sigma-Aldrich 248576) on the surface of the central region of the gel to track and quantify the imposed strains. We used a digital camera to image the markers before and after strain. Strain was imposed by removing the pins, manually extending the hydrogel cruciform arms, and pushing the pins back through the arms to hold the scaffold in a new, extended position. Photographs of the marker positions were used to compute a single homogenous deformation gradient tensor F that provided the least-squares best fit mapping of the 9 marker positions from the undeformed to deformed positions by solving the overdetermined matrix equation: […]
# porcine fibroblasts = test: 3D organotypic scar culture system (strained collagen scaffolds), scRNA-seq; assay type: cell-based; details: 10% strain, 10 µM FAKI
# Description: as §2
# We isolated and cultured dermal fibroblasts from both healthy human and porcine skin samples. Fibroblasts were isolated by mechanical and enzymatic digestion and cultured under standard conditions until passage 3. […]
# We used a suture to paint nine Titanium(IV) oxide dots (Sigma-Aldrich 248576) on the surface of the central region of the gel to track and quantify the imposed strains. […]
# [2] = test system: full-thickness excisional wounds with STSG; test: Scar contracture analysis in porcine STSG model; assay type: in vivo, red Duroc pigs
# Description: as §1
# (§3) After three weeks, dressings (and hydrogels) were changed twice per week until month 3. STSG were no longer bolster dressed and instead a conventional dressing was used (Telfa+Tegaderm). Each STSG within the animal was biopsied for histological and molecular evaluation at the end of the study.
# STSG were monitored photographically at each dressing change. Each image was taken with a ruler or standard measurement device to standardize measurements. Scar areas were traced over time in ImageJ. Contracture was measured as change in scar area, normalized to the area of the STSG during the first dressing change. Two independent evaluators measured scar area, and the resultant scar area was the average of the two measurements.
# [3] = test system: full-thickness excisional wounds with STSG; test: Cutometer viscoelastic analysis of STSG biomechanical properties; assay type: in vivo, red Duroc pigs; details: vs untreated STSG; P<0.05
# Description: as §1, §3
# A cutometer (Dual MPA 580, Courage+Khazaka Electronic) was used to evaluate the firmness and elasticity of the healing tissue and unwounded skin. Cutometer assessment is one of the most common instruments to measure viscoelasticity in human patients (111, 112), measuring the vertical deformation of the skin surface by applying negative pressure (suction) through a small circular diameter (8 mm probe). Deformation (suction) for two seconds followed by two seconds of relaxation (no suction) was applied three times and averaged. The firmness 0 was measured as the amplitude at the end of the suction phase (RO metric) and normalized against the values of STSG treated with blank hydrogels (111). Increased deformation to a consistent negative pressure corresponds to less firm tissue, more similar to unwounded skin.
# [4] = POD90, regenerative lineages 1 and 2
smiles,measurement,setting,value
CN(c1ncccc1CNc1nc(Nc2ccc3c(c2)CC(=O)N3)ncc1C(F)(F)F)S(C)(=O)=O [FAKI],collagen fiber length and alignment,"[1]; deep dermis, POD90, P<0.05",shorter and more randomly aligned
same,overall collagen deposition,"[1]; superficial and deep dermis, by decreasing fiber widths and architectural complexity",decreased
same,secretion of IP-10 (CXCL10),"porcine STSG tissue; POD 7, P<0.05",upregulated
same,number of infiltrating inflammatory cells (F4/80-positive macrophages),"porcine STSG tissue; early (POD 7, P<0.001) and late (POD 90, P<0.05) time points",significantly decreased
same,number of DEGs between untreated STSG and STSG treated with FAKI,porcine STSG cells; all other cell types,< 75
same,number of DEGs between untreated STSG and STSG treated with FAKI,porcine STSG cells; fibroblasts,about 50
same,number of DEGs between untreated STSG and STSG treated with FAKI,"porcine STSG cells; monocyte-lineage cells (macrophages, monocytes, dendritic cells)",> 170
same,number of DEGs between untreated STSG and STSG treated with FAKI,"porcine STSG cells; neutrophils and lymphoid cells, each",around 100
same,adipogenic gene sets and stem cell markers (CD34 and NT5E) in fibroblasts,"porcine STSG cells; POD90, lineages 1 and 2",promoted
same,fibroblast transcriptional state (CellRank lineages),"porcine STSG cells; POD90, primarily lineages 1 and 2",transcriptional similarity to those from unwounded skin
same,"APOE, CLEC3B, CD34, and PPARG unspliced pre-mRNA in fibroblasts",porcine STSG cells; [4],upregulation
same,pro-fibrotic genes in fibroblasts,porcine STSG cells; [4],abrogation
same,tumor growth,tumor growth,blocks tumor growth
same,CD34 expression,human fibroblasts; P<0.0001,significantly increasing
same,APOE expression,human fibroblasts; P<0.01,significantly increasing
same,aSMA expression,human fibroblasts; P<0.01,significantly decreased
same,CXCL14 expression,human fibroblasts; P<0.05,significantly decreased
same,THBS4 expression,human fibroblasts; P<0.05,significantly decreased
same,"APOE, EGR1 and PRDX1 expression",porcine fibroblasts,upregulation
same,"pro-fibrotic responses (CXCL14, THBS2, COL1A1 expression)",porcine fibroblasts,abrogated
same,scar contracture at early time points,"[2]; POD7, P=0.09, POD21, P<0.05",blocked scar contracture
same,scar contracture,"[2]; POD28, change in scar area normalized to STSG area at first dressing change, untreated and blank hydrogel-treated STSGs over 70%",30%
same,STSG firmness and stiffness (cutometer deformation),[3],less firm and less stiff

# Reference: patent US20240252494A1, “Mechanotransduction Disruption Mediation in Skin Grafting Methods and Compositions for Use in Practicing the Same” (The Board of Trustees of the Leland Stanford Junior …, priority 2021, published 2024)
